Data published in patent US10597388B2, “Pyridazinone herbicides” (FMC CORPORATION, priority 2014, dated 2020).

Tests used:
Assay in all cases: Test D controlled growth environment herbicide test, pre- and postemergence
Type in all cases: in vivo
[1] = system: barley, winter (winter barley, Hordeum vulgare)
From the text: (§1) Seeds of plant species selected from bluegrass (annual bluegrass, Poa annua), blackgrass (Alopecurus myosuroides), Canada thistle (Cirsium arvense), canarygrass (Phalaris minor), chickweed (common chickweed, Stellaria media), geranium, cutleaf (cutleaf geranium, Geranium dissectum), galium (catchweed bedstraw, Galium aparine), bromegrass, downy (downy bromegrass, Bromus tectorum), field poppy (Papaver rhoeas), field violet (Viola arvensis), foxtail, green (green foxtail, Setaria viridis), deadnettle (henbit deadnettle, Lamium amplexicaule), ryegrass, Italian (Italian ryegrass, Lolium multiflorum), kochia (Kochia scoparia), lambsquarters (Chenopodium album), oilseed rape (Brassica napus), pigweed (Amaranthus retroflexus), chamomile (scentless chamomile, Matricaria inodora), Russian thistle (Salsola kali), speedwell (bird's-eye speedwell, Veronica persica), barley, spring (spring barley, Hordeum vulgare), wheat, spring (spring wheat, Triticum aestivum), buckwheat, wild (wild buckwheat, Polygonum convolvulus), mustard, wild (wild mustard, Sinapis arvensis), oat, wild (wild oat, Avena fatua), radish, wild (wild radish, Raphanus raphanistrum), windgrass (Apera spica-venti), barley, winter (winter barley, Hordeum vulgare), and wheat, winter (winter wheat, Triticum aestivum) were planted into a silt loam soil and treated preemergence with test chemicals formulated in a non-phytotoxic solvent mixture which included a surfactant.
(§2) At the same time, these species were planted in pots containing Redi-Earth® planting medium (Scotts Company, 14111 Scottslawn Road, Marysville, Ohio 43041) comprising spaghnum peat moss, vermiculite, wetting agent and starter nutrients and treated with postemergence applications of the test chemicals formulated in the same manner. Plants ranged in height from 2 to 18 cm (1- to 4-leaf stage). Treated plants and controls were maintained in a controlled growth environment for 14 to 21 d after which time all species were compared to controls and visually evaluated. Plant response ratings, summarized in Table D, are based on a scale of 0 to 100 where 0 is no effect and 100 is complete control. A dash (-) response means no test result.

[2] = system: blackgrass (Alopecurus myosuroides)
From the text: as §1, §2

[3] = system: wheat, spring (spring wheat, Triticum aestivum)
From the text: as §1, §2

[4] = system: pigweed (Amaranthus retroflexus)
From the text: as §1, §2

[5] = system: field poppy (Papaver rhoeas)
From the text: as §1, §2

[6] = system: radish, wild (wild radish, Raphanus raphanistrum)
From the text: as §1, §2

kochia (Kochia scoparia) = system: kochia (Kochia scoparia)
From the text: as §1, §2

[7] = system: mustard, wild (wild mustard, Sinapis arvensis)
From the text: as §1, §2

[8] = system: barley, spring (spring barley, Hordeum vulgare)
From the text: as §1, §2

[9] = system: bluegrass (annual bluegrass, Poa annua)
From the text: as §1, §2

[10] = system: oat, wild (wild oat, Avena fatua)
From the text: as §1, §2

[11] = system: speedwell (bird's-eye speedwell, Veronica persica)
From the text: as §1, §2

[12] = Postemergence, 31 g ai/ha, scale 0 to 100 (0 no effect, 100 complete control)
[13] = Postemergence, 125 g ai/ha, visual rating on scale 0 (no effect) to 100 (complete control), 14 to 21 d
[14] = Postemergence, 250 g ai/ha, scale 0 to 100 (0 no effect, 100 complete control)
[15] = Preemergence, 62 g ai/ha, scale 0 to 100 (0 no effect, 100 complete control)
[16] = Preemergence, 125 g ai/ha, scale 0 to 100 (0 no effect, 100 complete control)
[17] = Preemergence, 250 g ai/ha, scale 0 to 100, 0 no effect, 100 complete control
[18] = postemergence, 62 g ai/ha, scale 0 to 100, 0 no effect, 100 complete control

CCc1sc2ccc(C)cc2c1-c1c(O)c(C)nn(C)c1=O [Compound 47]
70: Plant response rating (scale of 0 to 100), Pigweed ([4]; Preemergence, 31 g ai/ha) | Plant response rating, Kochia (kochia (Kochia scoparia); [18])
40: Plant response rating, Kochia (kochia (Kochia scoparia); [17]) | Plant response rating, Mustard, Wild [7, 16] | Plant response rating, Oat, Wild [10, 14] | Plant response rating, Oat, Wild [10, 17] | Plant response rating, Speedwell [11, 13]
25: Blackgrass plant response rating [2, 12] | Plant response rating, Blackgrass [2, 18] | Plant response rating, Radish, Wild [6, 15] | Plant response rating, Mustard, Wild [7, 14] | Plant response rating (scale of 0 to 100), Speedwell ([11]; Preemergence, 31 g ai/ha) | Plant response rating, Speedwell [11, 15]
80: Field Poppy plant response rating [5, 12] | Plant response rating, Speedwell [11, 16]
35: Plant response rating, Blackgrass [2, 13] | Plant response rating, Kochia (kochia (Kochia scoparia); [16]) | Plant response rating, Oat, Wild [10, 16]
10: Barley, Winter plant response rating [1, 12] | Barley, Winter plant response rating [1, 17] | Plant response rating, Barley, Winter [1, 18] | Wheat, Spring plant response rating [3, 12] | Plant response rating, Wheat, Spring [3, 18] | Plant response rating, Radish, Wild [6, 18] | Plant response rating (scale of 0 to 100), Kochia (kochia (Kochia scoparia); Preemergence, 31 g ai/ha) | Plant response rating, Kochia (kochia (Kochia scoparia); [15]) | Plant response rating (scale of 0 to 100), Mustard, Wild ([7]; Preemergence, 31 g ai/ha) | Plant response rating, Bluegrass [9, 13] | Plant response rating, Bluegrass [9, 18] | Oat, Wild plant response rating [10, 12] | Plant response rating (scale of 0 to 100), Oat, Wild ([10]; Preemergence, 31 g ai/ha) | Speedwell plant response rating [11, 12] | Plant response rating, Speedwell [11, 18]
100: Plant response rating, Pigweed [4, 13] | Plant response rating, Pigweed [4, 14] | Plant response rating, Pigweed [4, 15] | Plant response rating, Pigweed [4, 16] | Plant response rating, Pigweed [4, 17] | Plant response rating, Field Poppy [5, 13] | Plant response rating, Field Poppy [5, 14] | Plant response rating, Field Poppy [5, 15] | Plant response rating, Field Poppy [5, 16] | Plant response rating, Field Poppy [5, 17] | Plant response rating, Field Poppy [5, 18] | Plant response rating, Radish, Wild [6, 16] | Plant response rating, Kochia (kochia (Kochia scoparia); [14]) | Plant response rating, Speedwell [11, 17]
50: Blackgrass plant response rating [2, 17] | Plant response rating, Speedwell [11, 14]
5: Plant response rating, Barley, Winter [1, 16] | Plant response rating (scale of 0 to 100), Blackgrass ([2]; Preemergence, 31 g ai/ha) | Plant response rating (scale of 0 to 100), Wheat, Spring ([3]; Preemergence, 31 g ai/ha) | Plant response rating, Wheat, Spring [3, 15] | Radish, Wild plant response rating [6, 12] | Plant response rating, Radish, Wild [6, 13] | Plant response rating, Barley, Spring [8, 15] | Bluegrass plant response rating [9, 12]
65: Plant response rating, Blackgrass [2, 14] | Plant response rating, Mustard, Wild [7, 17]
0: Plant response rating (scale of 0 to 100), Barley, Winter ([1]; Preemergence, 31 g ai/ha) | Plant response rating, Barley, Winter [1, 15] | Mustard, Wild plant response rating [7, 12] | Plant response rating, Mustard, Wild [7, 18] | Barley, Spring plant response rating [8, 12] | Plant response rating, Barley, Spring [8, 13] | Plant response rating, Barley, Spring [8, 14] | Plant response rating (scale of 0 to 100), Barley, Spring ([8]; Preemergence, 31 g ai/ha) | Plant response rating, Barley, Spring [8, 18] | Plant response rating (scale of 0 to 100), Bluegrass ([9]; Preemergence, 31 g ai/ha)
85: Plant response rating, Radish, Wild [6, 17]
20: Plant response rating, Blackgrass [2, 15] | Plant response rating, Radish, Wild [6, 14] | Plant response rating (scale of 0 to 100), Radish, Wild ([6]; Preemergence, 31 g ai/ha) | Plant response rating, Mustard, Wild [7, 15] | Plant response rating, Bluegrass [9, 15] | Plant response rating, Bluegrass [9, 16] | Bluegrass plant response rating [9, 17] | Plant response rating, Oat, Wild [10, 13] | Plant response rating, Oat, Wild [10, 15]
95: Plant response rating, Kochia (kochia (Kochia scoparia); [13])
60: Plant response rating (scale of 0 to 100), Field Poppy ([5]; Preemergence, 31 g ai/ha)
15: Plant response rating, Barley, Winter [1, 13] | Plant response rating, Barley, Winter [1, 14] | Plant response rating, Wheat, Spring [3, 13] | Plant response rating, Wheat, Spring [3, 14] | Plant response rating, Wheat, Spring [3, 16] | Plant response rating, Wheat, Spring [3, 17] | Plant response rating, Mustard, Wild [7, 13] | Plant response rating, Barley, Spring [8, 16] | Barley, Spring plant response rating [8, 17] | Plant response rating, Bluegrass [9, 14] | Plant response rating, Oat, Wild [10, 18]
75: Pigweed plant response rating [4, 12] | Plant response rating, Pigweed [4, 18]
45: Kochia plant response rating (kochia (Kochia scoparia); [12])
30: Plant response rating, Blackgrass [2, 16]
